These results are taken from US20100093611A1, “COMPOUNDS AND METHODS FOR TREATING OR PREVENTING AUTOIMMUNE DISEASES” (priority 2007, published 2010).

Series [1] relates to MCP-1. The experiment in a line: IFN-α induced MCP-1 secretion from human monocytes. The format is cell-based. Particulars: 500 IU/ml IFN-α, 48 h (FIG. 6B). As for the experimental part:
(§1) Freshly isolated monocytes were treated with 500 IU/ml IFN-α with or without indicated compounds for 48 h. Supernatants were collected and MCP-1 and IP-10 levels were analyzed by Searchlight Inc. Percentage inhibition represents inhibition of the upregulation of chemokine induced by IFN-α compared to the vehicle control. Panel A: Effect of compounds on IP-10 secretion. Panel B: Effect of compounds on MCP-1 secretion. Each bar represents the average+/−SEM of three independent experiments. Panel C: IKK2 inhibitor IV blocked IFN-α induced IP-10 protein level in vivo. Female NZBW/F1 mice were treated with either antibody (i.p. injection 30 mg/kg) or IKK2 inhibitor (45 mg/kg BID) as described in materials and methods. Adenovirus-IFN-a (1×10^10 viral particles) was administrated i.v. at time 0. Samples were collected 6 h post-stimulation, IP-10 protein level was measured by ELISA. Data representative of two experiments.
(§2) Multiple chemokines, including monocyte chemo-attractant protein-1 (MCP-1) and activated T cell chemokine interferon inducible protein 10 (IP-10) regulate leukocytes migration and infiltration into inflammated organs^34. Expression of MCP-1 and IP-10 are elevated in serum of SLE patients^34, 35 and in monocytes of healthy donors stimulated in vitro by IFN-α^36. Consequently, the effect of Apicidin 1a, IKK2 inhibitor IV, and JAK inhibitors in IP-10 and MCP-1 expression induced by IFN-α from human monocytes was examined.
(§3) For monocyte differentiation assays, human monocytes were isolated from the blood of healthy donors according to manufactory's instructions (Miltenyi Biotec Inc; Auburn Calif.). 5×10^5 freshly prepared monocytes were pre-incubated with compounds or vehicle control for 30 min. […] Cell surface protein were stained with FITC-labeled anti-CD80, PE-labeled anti-CD123, PEcy7 labeled anti-CD38, APC cy7 labeled MHC class II (all BD, San Jose, Calif.) and analyzed on a FACS Calibur flow cytometer (BD). Cytokine and chemokine levels in supernatants from monocyte differentiation assays were measured using searchlight human cytokine array (Pierce Inc, Woburn, Mass.). […]

The test system of series [2] is CD80, CD123 and CD38 cell surface expression on monocytes. Put plainly: IFN-α induced primary human monocyte activation/differentiation, cell surface markers by FACS. The class given is cell-based. Particulars: 500 IU/ml IFN-α, 48 h, FACS (FIG. 5). On the procedure:
Freshly isolated monocytes from healthy donor were pre-incubated with compounds or vehicle control for 0.5 hour before stimulation with 500 IU/ml IFN-α. Cell surface expression of CD80, CD123 and CD38 was evaluated by FACS 48 h post-stimulation. Each bar represents the average+/−SEM of three independent experiments.
Since deregulated differentiation of DCs induced by IFN-α may be a critical contributing factor in SLE^13, the impact of Apicidin 1a, IKK2 inhibitor IV, and JAK inhibitors in DC differentiation was examined. Human monocytes were stimulated with IFN-α and the expression of CD38 CD80 and CD123 differentiation markers was monitored^33.
For monocyte differentiation assays, human monocytes were isolated from the blood of healthy donors according to manufactory's instructions (Miltenyi Biotec Inc; Auburn Calif.). 5×10^5 freshly prepared monocytes were pre-incubated with compounds or vehicle control for 30 min. Cells were then incubated in RPMI 1640 medium (Invitrogen, Carlsbad, Calif.) including 10% fetal calf serum (Invitrogen) supplemented with 500 IU/ml IFN-α 2a for 48 hr. Cell surface protein were stained with FITC-labeled anti-CD80, PE-labeled anti-CD123, PEcy7 labeled anti-CD38, APC cy7 labeled MHC class II (all BD, San Jose, Calif.) and analyzed on a FACS Calibur flow cytometer (BD). Cytokine and chemokine levels in supernatants from monocyte differentiation assays were measured using searchlight human cytokine array (Pierce Inc, Woburn, Mass.). (see FIG. 5)
For orientation: Flow cytometry measures light scatter and fluorescence of single cells or particles in a stream.

In series [3] the test system is IFN-α signaling pathway. The experiment in a line: High-Throughput Integrated Transcriptional Screening (HITS), qPCR of IFN-α signature gene set in THP-1 cells. Particulars: compound 10 μM, 100 IU/ml IFN-α 4 h, a gene inhibited by more than 50% gets its maximum score, scores added, hit if greater than 50% of maximum. The format is cell-based, human. On the procedure:
The unique gene expression signature of the IFN-α signaling pathway was established in THP-1 cells by comparing the gene profiles of the fully activated IFNα pathway to the basal gene expression. THP-1 cells were stimulated either with 100 IU/ml IFN-α, 100 IU/ml IFN-γ, or 10 ng/ml TNF-α to generate the activated pathway gene signatures.
In one embodiment, the compounds of Table 1 were used to identify different mechanisms of action as identified from primary screening. If a gene is inhibited by more than 50% then it receives its maximum score (all or none type of scoring).
THP-1 cells seeded at 8×10^5 cells/ml were treated with either compound (10 μM final concentration) or vehicle control (0.1% DMSO) for 30 minutes prior to a four hour stimulation with 100 IU/ml IFN-α or PBS. Plates were incubated at 37° C. in a humidified incubator. Cell lysis and RNA isolation were carried out according to the manufacturer's instructions (TurboCapture mRNA Kit, Qiagen Inc.). PCR primer pairs were designed for each of the genes identified through the global gene expression analysis using Primer 3 based method (see below for primer sequences). Each primer was evaluated for the efficient production of a single band of appropriate size in the presence of template RNA and the lack of distinct amplification products in a non-template control. Real time PCR reactions were carried out in SYBR green master mix (Quanta biosciences) on ABI9700 thermocyclers.
We used the house keeping gene, GAPDH, as the normalization control for the IFN-α gene signature set to correct the overall variability in the qPCR based HITS process. The corrected profiles were then normalized to the basal gene expression levels determined by using the vehicle only treatments. We subtracted the vehicle only control gene value from the test compound gene profiles, gene per gene (see FIG. 1).
A general note: Real-time PCR tracks product formation cycle by cycle.

In series [4] the test system is freshly isolated monocytes. The experiment in a line: Cytotoxicity at the concentration used in the SLE serum monocyte assay. Particulars: 1 μm. The format is cell-based, human.
For series [5], the system named is IP-10. Put plainly: IFN-α induced IP-10 secretion from human monocytes. The format is cell-based. Particulars: 500 IU/ml IFN-α, 48 h (FIG. 6A). As for the experimental part: as §1, §2, §3

In the case of `CCC(=O)CCCCC[C@@H]1NC(=O)[C@H]2CCCCN2C(=O)C([C@@H](C)CC)NC(=O)[C@H](Cc2cn(OC)c3ccccc23)NC1=O` (some centres unmarked) [Compound 2, Apicidin], in series [1], the “MCP-1 expression induced by IFN-α” value was “totally neutralizes MCP-1 expression”. In series [2], the CD38 expression result is “limited to the highest dose of 1 μM”, the CD80 expression entry is recorded as “blocks CD80 expression” and the CD123 expression entry is recorded as “limited to the highest dose of 1 μM”. Also, in series [3], the “HTS Score” value came out at 0.89. The Cytotoxicity entry in series [4] is given as “did not exhibit cytotoxicity”. In series [5], the “Expression of IP-10 induced by IFN-α” value is recorded as “no neutralization”.

On to `NC(=O)Nc1sc(-c2ccc(F)cc2)cc1C(N)=O` [Compound 5, IKK-2 Inhibitor IV], for which the “MCP-1 expression induced by IFN-α” value in series [1] was “restricted to the highest dose”. For the same molecule, in series [2], the CD38 expression result is on record as “dose-dependent inhibition”, the CD80 expression entry is “dose-dependent inhibition” and the CD123 expression entry is listed as “dose-dependent inhibition”. Further, the “HTS Score” value in series [3] was found to be 0.95. Besides, the Cytotoxicity result in series [4] is listed as “did not exhibit cytotoxicity”. Besides, the “Expression of IP-10 induced by IFN-α” value in series [5] was “block the expression of IP-10”.
